Assay results taken from patent US20070010486A1 (priority 2005, published 2007).
Where a name gives a salt, the structure may show the parent alone.

Details: use of CAPTISOL

With `OC(COc1cccc2ncccc12)CN1CCN([C@@H]2c3ccccc3[C@@H]3[C@H](c4ccccc42)C3(F)F)CC1` (stereo partly shown) [zosuquidar trihydrochloride] the “increase in water solubility” value was > 5 fold.
